Molecules are shown by their SMILES.

What all share (assay type): in vivo
Assay [1] deals with Kochia scoparia. The experiment in a line: Herbicidal pre-emergence action, KCHSC. The conditions noted are these: visual grading after ca. 3 weeks vs untreated controls. An excerpt:
(§1) Seeds of mono- and dicotyledonous weed plants were sown in plastic pots (double sowings with one species of mono- and one species of dicotyledonous weed plants per pot), in sandy loam, and covered with soil. The compounds according to the invention, formulated in the form of wettable powders (WP) or as emulsifiable concentrates (EC), were applied to the surface of the covering soil as an aqueous suspension or as an emulsion, with the addition of 0.5% of an additive, at an application rate of 600 litres of water per hectare (converted). Following treatment, the pots were placed in a greenhouse and kept under optimum growth conditions for the test plants. The visual grading of the damage to the test plants is carried out after ca. 3 weeks in comparison to untreated controls (herbicidal effect in percent (%): 100% effect=plants have died, 0% effect=as control plants). Seeds of mono- and dicotyledonous weed plants were sown in plastic pots (double sowings with one species of mono- and one species of dicotyledonous weed plants per pot), in sandy loam, and covered with soil. The compounds according to the invention, formulated in the form of wettable powders (WP) or as emulsifiable concentrates (EC), were applied to the surface of the covering soil as an aqueous suspension or as an emulsion, with the addition of 0.5% of an additive, at an application rate of 600 litres of water per hectare (converted). Following treatment, the pots were placed in a greenhouse and kept under optimum growth conditions for the test plants. The visual grading of the damage to the test plants is carried out after ca. 3 weeks in comparison to untreated controls (herbicidal effect in percent (%): 100% effect=plants have died, 0% effect=as control plants).

The subject of assay [2] is Lolium rigidum. Description: Herbicidal pre-emergence action, LOLRI. The following applies: 1280 g/ha, visual grading after ca. 3 weeks vs untreated controls.
Text: as §1

Assay [3] relates to Matricaria inodora. Description: Herbicidal pre-emergence action, MATIN. The following applies: visual grading after ca. 3 weeks vs untreated controls.
Text: as §1

In assay [4] the test system is Stellaria media. The experiment in a line: Herbicidal pre-emergence action, STEME. The following applies: visual grading after ca. 3 weeks vs untreated controls.
Text: as §1

Assay [5] deals with Poa annua. Description: Herbicidal pre-emergence action, POAAN. The conditions noted are these: visual grading after ca. 3 weeks vs untreated controls.
Text: as §1

For assay [6], the system named is Amaranthus retroflexus. Description: Herbicidal pre-emergence action, AMARE. The conditions noted are these: visual grading after ca. 3 weeks vs untreated controls.
Text: as §1

For assay [7], the system named is Digitaria sanguinalis. Description: Herbicidal pre-emergence action, DIGSA. The conditions noted are these: 1280 g/ha, visual grading after ca. 3 weeks vs untreated controls. The source says: (§2) Seeds of mono- and dicotyledonous weed plants were sown in plastic pots (double sowings with one species of mono- and one species of dicotyledonous weed plants per pot), in sandy loam, and covered with soil. The compounds according to the invention, formulated in the form of wettable powders (WP) or as emulsifiable concentrates (EC), were applied to the surface of the covering soil as an aqueous suspension or as an emulsion, with the addition of 0.5% of an additive, at an application rate of 600 litres of water per hectare (converted). Following treatment, the pots were placed in a greenhouse and kept under optimum growth conditions for the test plants. The visual grading of the damage to the test plants is carried out after ca. 3 weeks in comparison to untreated controls (herbicidal effect in percent (%): 100% effect=plants have died, 0% effect=as control plants).

Assay [8] relates to Kochia scoparia. Description: Herbicidal post-emergence action, KCHSC. The following applies: assessed visually after ca. 3 weeks vs untreated controls. The source says: (§3) Seeds of mono- and dicotyledonous weed plants were sown in plastic pots (double sowings with one species of mono- and one species of dicotyledonous weed plants per pot), in sandy loam, covered with soil and grown under controlled growth conditions. 2 to 3 weeks after sowing, the test plants were sprayed in the single-leaf stage. The compounds according to the invention, formulated in the form of wettable powders (WP) or as emulsifiable concentrates (EC), were sprayed onto the green plant parts as an aqueous suspension or as an emulsion, with the addition of 0.5% of an additive, at an application rate of 600 litres of water per hectare (converted). The test plants were placed in the greenhouse for ca. 3 weeks under optimum growth conditions, and then the effect of the preparations is assessed visually in comparison with untreated controls (herbicidal effect in percent (%): 100% effect=plants have died, 0% effect=as control plants). […]

The subject of assay [9] is Stellaria media. Description: Herbicidal post-emergence action, STEME. The following applies: assessed visually after ca. 3 weeks vs untreated controls.
Text: as §3

Assay [10] has as its system Veronica persica. Description: Herbicidal post-emergence action, VERPE. The conditions noted are these: assessed visually after ca. 3 weeks vs untreated controls.
Text: as §3

Assay [11] has as its system Poa annua. The experiment in a line: Herbicidal post-emergence action, POAAN. The following applies: assessed visually after ca. 3 weeks vs untreated controls.
Text: as §3

In assay [12] the test system is Alopecurus myosuroides. The experiment in a line: Herbicidal pre-emergence action, ALOMY. The following applies: 1280 g/ha, visual grading after ca. 3 weeks vs untreated controls.
Text: as §2

In assay [13] the test system is Echinochloa crus-galli. The experiment in a line: Herbicidal pre-emergence action, ECHCG. The conditions noted are these: 1280 g/ha, visual grading after ca. 3 weeks vs untreated controls.
Text: as §2

Assay [14] has as its system Setaria viridis. The experiment in a line: Herbicidal pre-emergence action, SETVI. The conditions noted are these: 1280 g/ha, visual grading after ca. 3 weeks vs untreated controls.
Text: as §2

Assay [15] concerns Veronica persica. The experiment in a line: Herbicidal pre-emergence action, VERPE. The following applies: 1280 g/ha, visual grading after ca. 3 weeks vs untreated controls.
Text: as §1

Assay [16] has as its system Abutilon theophrasti. Description: Herbicidal post-emergence action, ABUTH. The following applies: 1280 g/ha, assessed visually after ca. 3 weeks vs untreated controls.
Text: as §3

Assay [17] deals with Alopecurus myosuroides. Description: Herbicidal post-emergence action, ALOMY. The conditions noted are these: assessed visually after ca. 3 weeks vs untreated controls.
Text: as §3

In assay [18] the test system is Lolium rigidum. Description: Herbicidal post-emergence action, LOLRI. The conditions noted are these: 1280 g/ha, assessed visually after ca. 3 weeks vs untreated controls.
Text: as §3

The subject of assay [19] is Matricaria inodora. Description: Herbicidal post-emergence action, MATIN. The conditions noted are these: assessed visually after ca. 3 weeks vs untreated controls.
Text: as §3

Assay [20] deals with Setaria viridis. The experiment in a line: Herbicidal post-emergence action, SETVI. The following applies: 1280 g/ha, assessed visually after ca. 3 weeks vs untreated controls. An excerpt:
Seeds of mono- and dicotyledonous weed plants were sown in plastic pots (double sowings with one species of mono- and one species of dicotyledonous weed plants per pot), in sandy loam, covered with soil and grown under controlled growth conditions. 2 to 3 weeks after sowing, the test plants were sprayed in the single-leaf stage. The compounds according to the invention, formulated in the form of wettable powders (WP) or as emulsifiable concentrates (EC), were sprayed onto the green plant parts as an aqueous suspension or as an emulsion, with the addition of 0.5% of an additive, at an application rate of 600 litres of water per hectare (converted). The test plants were placed in the greenhouse for ca. 3 weeks under optimum growth conditions, and then the effect of the preparations is assessed visually in comparison with untreated controls (herbicidal effect in percent (%): 100% effect=plants have died, 0% effect=as control plants).

The test system of assay [21] is Amaranthus retroflexus. Description: Herbicidal post-emergence action, AMARE. The following applies: assessed visually after ca. 3 weeks vs untreated controls.
Text: as §3

For `O=C(Nc1ncns1)c1c(C(F)(F)F)ccnc1C1CC1` [Example I-005], the entries for the “herbicidal effect KCHSC” value in assay [1] (1280 g/ha) and in assay [8] (1280 g/ha) were 100% and 90%, respectively. The “herbicidal effect LOLRI” value in assay [2] is given as 100%. Besides, the “herbicidal effect MATIN” value in [3] (1280 g/ha) was found to be 100%. For the same compound, the “herbicidal effect STEME” value in assay [4] (320 g/ha) amounted to 100%; in assay [4] (1280 g/ha), 100%; in assay [9] (320 g/ha) it was 90%; in assay [9] (1280 g/ha), 90%. The “herbicidal effect POAAN” value in assay [5] (320 g/ha), in assay [5] (1280 g/ha), in [11] (320 g/ha) and in [11] (1280 g/ha) was 100% each time. Besides, the “herbicidal effect AMARE” value in assay [6] (1280 g/ha) came to 100%. Besides, in assay [7], the “herbicidal effect DIGSA” value is listed as 90%. For the same compound, the “herbicidal effect VERPE” value in assay [10] (320 g/ha) and in assay [10] (1280 g/ha) was 100% in each case.

Consider `O=C(Nc1nc(Cl)ns1)c1c(C(F)(F)F)ccnc1F` [Example I-009, N-(3-chloro-1,2,4-thiadiazol-5-yl)-2-fluoro-4-(trifluoromethyl)pyridine-3-carboxamide], for which the “herbicidal effect ALOMY” value in [12] is 100%; in [17] (320 g/ha), 90%; in [17] (1280 g/ha), 100%. Moreover, the “herbicidal effect ECHCG” value in [13] is recorded as 90%. Further, the “herbicidal effect KCHSC” value came out at 90% in assay [1] (320 g/ha), 100% in assay [1] (1280 g/ha), 100% in assay [8] (320 g/ha) and 100% in assay [8] (1280 g/ha). The “herbicidal effect LOLRI” value in assay [2] and in assay [18] was 90% throughout. In addition, the “herbicidal effect MATIN” value in assay [3] (320 g/ha), in assay [3] (1280 g/ha), in assay [19] (320 g/ha) and in assay [19] (1280 g/ha) was 100% each time. The “herbicidal effect SETVI” value in assay [14] and in [20] was 90% each time. Also, the “herbicidal effect STEME” value in assay [4] (320 g/ha), in assay [4] (1280 g/ha), in assay [9] (320 g/ha) and in [9] (1280 g/ha) was 100% each time. The results for the “herbicidal effect VERPE” value in [15], in [10] (320 g/ha) and in assay [10] (1280 g/ha) were 90%, 100% and 100%, respectively. For the same compound, the “herbicidal effect POAAN” value in assay [5] (1280 g/ha) was found to be 90%; in [11] (320 g/ha), 90%; in [11] (1280 g/ha) it was 100%. Also, the “herbicidal effect AMARE” value is reported as 90% in assay [6] (320 g/ha), 100% in assay [6] (1280 g/ha), 100% in assay [21] (320 g/ha) and 100% in [21] (1280 g/ha). Moreover, the “herbicidal effect ABUTH” value in assay [16] is reported as 90%.

As for `O=C(Nc1nc(Cl)ns1)c1cnccc1C(F)(F)F` [Example I-015], the “herbicidal effect KCHSC” value in [1] (1280 g/ha) and in assay [8] (1280 g/ha) was 90% each time. Also, the “herbicidal effect MATIN” value in [19] (320 g/ha) worked out at 90%; in [19] (1280 g/ha), 100%. Also, the “herbicidal effect SETVI” value in assay [20] was determined as 90%. The “herbicidal effect STEME” value in assay [9] (320 g/ha) and in [9] (1280 g/ha) was 100% each time. For the same compound, the “herbicidal effect VERPE” value in [10] (320 g/ha) and in assay [10] (1280 g/ha) was 90% in each case. In addition, the “herbicidal effect AMARE” value in assay [21] (1280 g/ha) is 100%.

The values above are taken from US20240349726A1, “SUBSTITUTED 1,2,4-THIADIAZOLYL NICOTINAMIDES, SALTS OR N-OXIDES THEREOF AND THEIR USE AS HERBICIDALLY ACTIVE SUBSTANCES” (Bayer Aktiengesellschaft, priority 2021, published 2024).
